13 compounds from PubChem BioAssay AID392 (SGCOxCompounds, 2006) can be followed below.

The target in the first experiment is Peroxisomal trans-2-enoyl-CoA reductase (Homo sapiens) (UniProt Q9BY49). As to the kind of experiment: compound-induced PECR thermal stabilization – biophysical, human, DSF, SYPRO orange, NADP+ (AID 392). The note with it: recombinant PECR, at 10 µM, protein 2 µM, buffer 10 mM HEPES, pH 7.5, NaCl 150 mM, NADP 200 µM, stronger effect = higher value.
Peroxisomal trans-2-enoyl-CoA reductase (Homo sapiens), sequence (Q9BY49 whole entry, looked up): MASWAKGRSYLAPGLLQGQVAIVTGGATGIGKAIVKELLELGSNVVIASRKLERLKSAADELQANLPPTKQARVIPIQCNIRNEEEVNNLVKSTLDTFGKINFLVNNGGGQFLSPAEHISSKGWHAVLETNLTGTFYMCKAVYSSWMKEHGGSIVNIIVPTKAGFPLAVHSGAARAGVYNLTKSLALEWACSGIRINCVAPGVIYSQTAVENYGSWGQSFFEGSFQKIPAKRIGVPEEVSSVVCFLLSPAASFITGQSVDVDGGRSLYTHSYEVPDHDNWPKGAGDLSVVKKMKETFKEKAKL
Regarding `O=c1oc2cc(O)ccc2c2oc3cc(O)ccc3c12`, the Tm shift was found to be 2.2 Celsius.
Take `NC(=O)c1ccc[n+](C2OC(COP(=O)(O)OP(=O)(O)OCC3OC(n4cnc5c(N)ncnc54)C(O)C3O)C(O)C2O)c1` (stereo not drawn): the Tm shift was determined as 2.2 Celsius.
The same measure, in the same setting: under `CCc1nnc(NS(=O)(=O)c2ccc(NC(=O)/C=C/c3ccc(F)cc3)cc2)s1` stands 2.4 Celsius; under `O=C(C1CCC(CNS(=O)(=O)c2ccc(Br)s2)CC1)N1CCN(C(c2ccccc2)c2ccc(Cl)cc2)CC1` (stereo not drawn), 2.3 Celsius; under `O=C(C1CCN(S(=O)(=O)c2ccc(Br)s2)CC1)N1CCN(C(c2ccccc2)c2ccc(Cl)cc2)CC1` (stereo not drawn), 2.1 Celsius.
As to `NC(=O)c1ccc[n+](C2OC(COP(=O)(O)OP(=O)(O)OCC3OC(n4cnc5c(N)ncnc54)C(OP(=O)(O)O)C3O)C(O)C2O)c1` (stereo not drawn), the Tm shift stood at 2.2 Celsius.

The same experiment, now with this note: recombinant PECR, at 10 µM, protein 2 µM, buffer 10 mM HEPES, pH 7.5, NaCl 150 mM, NADP+ 200 µM, stronger effect = higher value.
Regarding `O=C(O[C@@H]1Cc2c(O)cc(O)cc2O[C@H]1c1ccc(O)c(O)c1)c1cc(O)c(O)c(O)c1`, the Tm shift is 12.6 Celsius.

The same experiment, now with this note: recombinant PECR, at 100 µM, protein 2 µM, buffer 10 mM HEPES, pH 7.5, NaCl 150 mM, NADP+ 200 µM, stronger effect = higher value.
On to `O=C1C2(Cl)C3(Cl)C4(Cl)C(Cl)(Cl)C5(Cl)C3(Cl)C1(Cl)C5(Cl)C24Cl` (stereo not drawn), for which the Tm shift was 3.1 Celsius.
The same measure, in the same setting: under `C[C@@]12CCC3=C(CCc4cc(O)ccc43)[C@]13C[C@@H]3CC2=C(F)F` stands 23.8 Celsius; under `C=CC1=C(C)/C(=C/c2[nH]c(Cc3[nH]c(/C=C4\NC(=O)C(C)=C4C=C)c(C)c3CCC(=O)O)c(CCC(=O)O)c2C)NC1=O`, 10 Celsius.
Same read-out and setting: under `CCCCCCCCCC(=O)SCCNC(=O)CCNC(=O)C(O)C(C)(C)COP(=O)(O)OP(=O)(O)OCC1OC(n2cnc3c(N)ncnc32)C(O)C1OP(=O)(O)O` (stereo not drawn) stands 4.1 Celsius; under `O=C1Nc2ccccc2C1=O`, 6.4 Celsius; under `C[C@@]12CCC3=C(CCc4cc(O)ccc43)[C@H]1CCC2=C(F)F`, 3.7 Celsius.
